Values of other authors in patent publication US10913844B2, “Plasticized thermoset resin, and associated cured resin, method of curing, and article comprising cured resin” (The University of Massachusetts, priority 2016, dated 2021).

Conditions: solvent furfural

solubility of HMTA in furfural: less than two
SMILES: C1N2CN3CN1CN(C2)C3 [HMTA, hexamethylenetetramine]
